{
  "source": "patent US20250270209A1",
  "about": "(INTERLINE THERAPEUTICS, INC., priority 2022, published 2025)",
  "key": {"LRRK2 wild type enzyme": {"target": "LRRK2 wild type enzyme (Homo sapiens, UniProt Q5S007)", "sequence (Q5S007 whole entry)": "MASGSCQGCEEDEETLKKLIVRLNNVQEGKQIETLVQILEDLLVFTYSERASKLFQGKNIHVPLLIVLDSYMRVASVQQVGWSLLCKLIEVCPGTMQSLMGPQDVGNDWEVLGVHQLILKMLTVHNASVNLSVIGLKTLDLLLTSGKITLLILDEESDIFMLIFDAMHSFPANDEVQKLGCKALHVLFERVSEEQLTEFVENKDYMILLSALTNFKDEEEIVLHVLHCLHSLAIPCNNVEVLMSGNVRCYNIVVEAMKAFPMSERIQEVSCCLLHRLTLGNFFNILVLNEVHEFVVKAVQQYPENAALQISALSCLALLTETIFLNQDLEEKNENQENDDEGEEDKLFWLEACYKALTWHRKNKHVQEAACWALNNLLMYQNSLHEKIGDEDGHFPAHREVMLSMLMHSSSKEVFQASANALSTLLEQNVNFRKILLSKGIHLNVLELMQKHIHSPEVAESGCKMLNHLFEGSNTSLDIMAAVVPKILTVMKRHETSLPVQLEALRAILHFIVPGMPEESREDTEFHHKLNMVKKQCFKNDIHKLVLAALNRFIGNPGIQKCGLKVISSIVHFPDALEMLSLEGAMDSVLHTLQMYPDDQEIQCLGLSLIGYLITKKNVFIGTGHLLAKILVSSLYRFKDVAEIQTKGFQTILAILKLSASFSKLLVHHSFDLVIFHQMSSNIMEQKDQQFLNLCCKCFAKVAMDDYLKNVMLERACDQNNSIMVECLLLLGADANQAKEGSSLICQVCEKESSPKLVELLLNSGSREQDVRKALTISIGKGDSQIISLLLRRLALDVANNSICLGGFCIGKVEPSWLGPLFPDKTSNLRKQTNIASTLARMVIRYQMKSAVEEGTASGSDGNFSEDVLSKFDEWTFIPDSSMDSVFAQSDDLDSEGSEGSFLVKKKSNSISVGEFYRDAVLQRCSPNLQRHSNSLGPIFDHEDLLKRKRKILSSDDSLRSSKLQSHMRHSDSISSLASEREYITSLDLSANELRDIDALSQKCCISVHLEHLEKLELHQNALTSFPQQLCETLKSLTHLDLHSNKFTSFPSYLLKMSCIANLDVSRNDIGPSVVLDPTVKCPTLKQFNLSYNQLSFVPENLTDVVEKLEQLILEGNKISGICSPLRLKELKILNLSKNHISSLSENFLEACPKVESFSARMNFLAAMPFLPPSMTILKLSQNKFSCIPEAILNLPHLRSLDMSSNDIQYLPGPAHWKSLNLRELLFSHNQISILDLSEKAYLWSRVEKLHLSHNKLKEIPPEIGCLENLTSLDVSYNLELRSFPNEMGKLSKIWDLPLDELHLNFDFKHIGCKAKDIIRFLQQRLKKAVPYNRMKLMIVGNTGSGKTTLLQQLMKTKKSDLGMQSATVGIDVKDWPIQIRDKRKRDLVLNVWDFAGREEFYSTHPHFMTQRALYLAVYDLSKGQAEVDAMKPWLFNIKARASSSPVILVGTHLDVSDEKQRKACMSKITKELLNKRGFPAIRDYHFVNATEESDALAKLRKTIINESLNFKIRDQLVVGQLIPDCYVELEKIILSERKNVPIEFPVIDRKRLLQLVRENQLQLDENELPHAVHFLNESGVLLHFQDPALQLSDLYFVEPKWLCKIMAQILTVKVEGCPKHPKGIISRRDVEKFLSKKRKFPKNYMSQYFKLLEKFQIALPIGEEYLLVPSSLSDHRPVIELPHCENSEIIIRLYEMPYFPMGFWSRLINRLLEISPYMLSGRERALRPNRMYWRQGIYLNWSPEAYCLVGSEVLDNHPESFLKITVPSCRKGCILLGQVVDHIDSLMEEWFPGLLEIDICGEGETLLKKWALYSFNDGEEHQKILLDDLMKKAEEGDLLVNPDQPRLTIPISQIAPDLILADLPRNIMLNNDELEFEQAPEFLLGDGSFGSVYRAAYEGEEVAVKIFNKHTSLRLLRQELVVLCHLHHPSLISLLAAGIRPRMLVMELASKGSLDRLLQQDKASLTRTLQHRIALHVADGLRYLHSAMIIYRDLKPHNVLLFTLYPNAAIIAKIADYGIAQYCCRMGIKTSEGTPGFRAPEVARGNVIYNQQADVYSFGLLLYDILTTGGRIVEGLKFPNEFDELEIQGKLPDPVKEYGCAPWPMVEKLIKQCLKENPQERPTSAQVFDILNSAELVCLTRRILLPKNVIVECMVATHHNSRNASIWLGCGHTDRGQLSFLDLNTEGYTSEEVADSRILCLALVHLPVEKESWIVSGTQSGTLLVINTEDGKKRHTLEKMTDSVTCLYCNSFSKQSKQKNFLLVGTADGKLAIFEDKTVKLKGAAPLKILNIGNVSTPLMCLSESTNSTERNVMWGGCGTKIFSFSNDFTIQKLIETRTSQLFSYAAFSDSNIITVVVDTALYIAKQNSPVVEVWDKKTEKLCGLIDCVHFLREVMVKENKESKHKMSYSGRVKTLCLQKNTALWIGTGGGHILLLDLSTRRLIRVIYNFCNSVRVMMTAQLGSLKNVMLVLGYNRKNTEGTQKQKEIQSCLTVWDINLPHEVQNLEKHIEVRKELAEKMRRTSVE", "test": "Biochemical Assay: LRRK2 TR-FRET (LanthaScreen) kinase assay with LRRKtide substrate", "details": "LRRK2 Inhibition, Table 8", "procedure": "10 mM compound solution was prepared in DMSO. An 11-point, 3-fold dilution was performed, with highest concentration at 10 μM. A 10 mM compound DMSO solution was added to Labcyte LDV plate and the compound concentration of source plate was 10 mM. The 1st compound concentration of Inter plate(Labcyte 384 well PP plate) was 4.938×10^−1 mM which was prepared by transferring 1.5 μL of 10 mM compound from source plate to 28.9 μL DMSO. The 2nd compound concentration of Inter plate was 1.829×10^−2 mM which was prepared by transferring 60 nL of 10 mM compound from source plate to 32.7 μL DMSO. The 3rd compound concentration of Inter plate was 6.774×10^−4 mM which was prepared by transferring 2.5 nL of 10 mM compound from source plate to 36.9 μL DMSO. 100 nL of reference compound was dispensed in column 1 for low control wells and 100 nL of DMSO in column 24 for high control wells. Compounds were dispensed to column 2 to 23 of assay plate and backfilled with DMSO to a total volume of 100 nL.\nA 2X LRRK2 enzyme solution (final concentration 3 nM) was prepared in assay buffer (Tris-HCl pH8.0:50 mM, MgCl2: 5 mM, EDTA: 1 mM, Brij-35:0.01%, 2 mM DTT). A 2× substrate solution was prepared: LRRK2 tide substrate (final concentration 400 nM) and ATP (final concentration 25 μM) in assay buffer. 5 μL 2× LRRK2 enzyme solution was dispensed to each well in assay plate by Multidrop. Assay plate was spun at 1,000 rpm for 1 min and incubated for 15 min at 23° C. 5 μL 2× ATP/LRRKtide solution was dispensed to each well in assay plate by Multidrop. Assay plate was spun at 1,000 rpm for 1 min and incubated for 120 min at 23° C.\n(§1) A 2× detection solution was prepared: Tb-pERM (pLRRKtide) antibody (final concentration 0.25 nM) and EDTA (final concentration 10 mM) in TR-FRET dilution buffer. 10 μL 2× detection solution was dispensed to each well in assay plate to stop kinase reaction by Multidrop. Assay plate was spun at 1,000 rpm for 1 min and incubate for 30 min at 23° C. Assay plate was then read on Envision configured for LanthaScreen® TR-FRET. pS935 LRRK2 Cell Assay"}, "[1]": {"target": "T1, wild type LRRK2 overexpressed in recombinant HEK-293T cells (Homo sapiens, UniProt Q5S007)", "T1 construct": "host or cells: HEK293T (transient transfection with pCMV-LRRK2 WT plasmid)", "T1 sequence (Q5S007 whole entry)": "as above", "test": "pS935 LRRK2 Cell Assay (HTRF, phospho-LRRK2 Ser935)", "format": "cell-based", "details": "LRRK2 Inhibition, Table 8, 2 hours compound incubation", "procedure": "as §1\nThe following protocol describes an in-vitro method for measuring phosphorylation at Ser935 on wild type LRRK2 overexpressed in recombinant HEK-293T cells. The method is based on HTRF technology, which combines Fluorescence Resonance Energy Transfer (FRET) with Time-Resolved measurement (TR). Phospho-LRRK2 (Ser935) is detected in a sandwich assay format using two different specific antibodies, one labelled with Eu3+-Cryptate (donor) and the second with d2(acceptor).When the fluorophores are in close proximity, excitation of the donor with a light source (flash lamp) stimulates FRET to the acceptor, which in turn fluoresces at a specific wavelength (665 nm). The fluorescence emission at 615 nm from the donor is also measured to allow ratiometric reduction of data. The specific signal is proportional to phospho-LRRK2 (Ser935).\nPlasmid transient transfection: DMEM medium, FBS, DPBS, Trans-IT, OPTI-MEM reagents were allowed to warm to room temperature. HEK293T cells were cultured in DMEM +10% FBS complete medium in T150 flasks till around 80% confluency before transfection. Then cells were washed with 10 mL PBS and detached with 3 mL 0.25% typinsin. 30×10E6 HEK293T cells were seeded in DMEM +10% FBS complete medium to a 15 cm dish.\nDNA, TransIT-LT1, OPTI-MEM complex were prepared: […] OPTI-MEM was added to a 15 mL cone tube, then […] plasmid was added to OPTI-MEM and mixed, followed by addition of 60 μL TransIT-LT1 to the plasmid OPTI-MEM mixture and mixing. The resulting mixture was incubated for 15 minutes.\nThe above plasmid, DNA and OPTI-MEM mixture was added dropwise to the 15 cm dish, ensuring the drops were evenly distributed. The culture dish was gently rocked back and forth and from left to right to evenly distribute the complex. The tranfected dish was incubated for 24 hours at 37° C., and 5% CO2.\nTransfected HEK293T was collected in the 15 cm dish. Media was aspirated from tissue culture dish, and washed by dispensing 10 mL 1× DPBS into 15 cm dish. 1× DPBS was aspirated and 3 mL trypsin was dispensed to 15 cm dish. The dish was incubated with trypsin at room temperature for 3 min until the cells were detached. 10 mL of DMEM +10% FBS medium were added to 15 cm dish and triturated to ensure homogenous cell suspensions.\nHomogenous cell suspensions were transferred to a 50 mL tube, and centrifuged for 5 minutes at 1,000 rmp/min. The supernatant was aspirated and resuspended with 20 mL complete medium. 1 mL of cell suspension was transferred for cell counting. The cell suspension was diluted to 2× 10E5 cells/ml. 50 μL cell suspensions were added to a 384-well plate. The plate was quick spun at 800 rpm for 1 minute, then incubate overnight at 37° C., 5% CO2.\nCompound dispensing: compound was diluted (10 mM DMSO stock solution) and added to assay plate (top concentration: 10 μM, 3 fold serial dilution, 9 doses) with duplicates by Tecan liquid handler. The DMSO concentration of each well was normalized to 0.2%. Plates were quick spun at 1,000 rpm for 1 minute. Plates were incubated at 37° C., 5% CO2 for 2 hours.\n1× lysis buffer solution supplemented with blocking reagent was prepared (e.g. 1 mL lysis buffer 4X+3 mL water+40 μL stock blocking reagent 100X). Antibodies working solution was prepared by diluting 40-fold d2 and Cryptate antibodies with detection buffer(e.g. 1520 μL detection buffer+40 μL d2-antibody stock solution+[…] Cryptate-antibody stock solution).\nAfter 2 hours incubation, cell plates were taken out from the incubator. […]"}},
  "data": [
    {"compound": "C[C@@H]1C[C@H](n2c([C@H]3CCN(S(=O)(=O)C4CC4)C3)nc3cnc4ccc(C#N)cc4c32)CCO1", "note": "[Compound 25, 2-[(3S)-1-(cyclopropanesulfonyl)pyrrolidin-3-yl]-1-[(2R,4R)-2-methyloxan-4-yl]-1H-imidazo[4,5-c]quinoline-8-carbonitrile]", "values": [
      {"measurement": "IC50", "setting": "LRRK2 wild type enzyme", "value": 6.13, "unit": "nM"},
      {"measurement": "IC50", "setting": "[1]", "value": 563, "unit": "nM"}
    ]},
    {"compound": "C[C@@H]1C[C@H](n2c(CC(=O)N(C)CC(F)(F)F)nc3cnc4ccc(C#N)cc4c32)CCO1", "note": "[Compound 81, 2-{8-cyano-1-[(2R,4R)-2-methyloxan-4-yl]-1H-imidazo[4,5-c]quinolin-2-yl}-N-methyl-N-(2,2,2-trifluoroethyl)acetamide]", "values": [
      {"measurement": "IC50", "setting": "LRRK2 wild type enzyme", "value": 10.5, "unit": "nM"},
      {"measurement": "IC50", "setting": "[1]", "value": 728, "unit": "nM"}
    ]},
    {"compound": "C[C@@H]1C[C@H](n2c(CC(=O)NCc3cnn(C)c3)nc3cnc4ccc(C#N)cc4c32)CCO1", "note": "[Compound 87, 2-{8-cyano-1-[(2R,4R)-2-methyloxan-4-yl]-1H-imidazo[4,5-c]quinolin-2-yl}-N-[(1-methyl-1H-pyrazol-4-yl)methyl]acetamide]", "values": [
      {"measurement": "IC50", "setting": "LRRK2 wild type enzyme", "value": 0.473, "unit": "nM"},
      {"measurement": "IC50", "setting": "[1]", "value": 27.4, "unit": "nM"}
    ]},
    {"compound": "Cc1noc(C)c1NC(=O)Cc1nc2cnc3ccc(C#N)cc3c2n1[C@@H]1CCO[C@H](C)C1", "note": "[Compound 201, N-(3,5-dimethyl-4-isoxazolyl){3-[(2R,4R)-2-methyltetrahydro-2H-pyran-4-yl]-12-cyano-3,5,8-triazatricyclo[7.4.0.0^2,6]trideca-1,4,6,8,10,12-hexaen-4-yl}acetamide]", "values": [
      {"measurement": "IC50", "setting": "LRRK2 wild type enzyme", "value": 0.377, "unit": "nM"},
      {"measurement": "IC50", "setting": "[1]", "value": 11.6, "unit": "nM"}
    ]},
    {"compound": "C[C@@H]1C[C@H](n2c([C@@H]3CCN(S(=O)(=O)C4CC4)C3)nc3cnc4ccc(C#N)cc4c32)CCO1", "note": "[Compound 24, 2-[(3R)-1-(cyclopropanesulfonyl)pyrrolidin-3-yl]-1-[(2R,4R)-2-methyloxan-4-yl]-1H-imidazo[4,5-c]quinoline-8-carbonitrile]", "values": [
      {"measurement": "IC50", "setting": "LRRK2 wild type enzyme", "value": 5.4, "unit": "nM"},
      {"measurement": "IC50", "setting": "[1]", "value": 677, "unit": "nM"}
    ]},
    {"compound": "C[C@@H]1C[C@H](n2c(CC(=O)NCc3cccc(F)n3)nc3cnc4ccc(C#N)cc4c32)CCO1", "note": "[Compound 146, 2-{8-cyano-1-[(2R,4R)-2-methyloxan-4-yl]-1H-imidazo[4,5-c]quinolin-2-yl}-N-[(6-fluoropyridin-2-yl)methyl]acetamide]", "values": [
      {"measurement": "IC50", "setting": "LRRK2 wild type enzyme", "value": 0.313, "unit": "nM"},
      {"measurement": "IC50", "setting": "[1]", "value": 4.79, "unit": "nM"}
    ]},
    {"compound": "C[C@@H]1C[C@H](n2c(CC(=O)Nc3cnn(C)c3)nc3cnc4ccc(C#N)cc4c32)CCO1", "note": "[Compound 88, 2-{8-cyano-1-[(2R,4R)-2-methyloxan-4-yl]-1H-imidazo[4,5-c]quinolin-2-yl}-N-(1-methyl-1H-pyrazol-4-yl)acetamide]", "values": [
      {"measurement": "IC50", "setting": "LRRK2 wild type enzyme", "value": 0.457, "unit": "nM"},
      {"measurement": "IC50", "setting": "[1]", "value": 24.4, "unit": "nM"}
    ]},
    {"compound": "C[C@@H]1C[C@H](n2c(C3CC(=O)N([C@H](C)C4CC4)C3)nc3cnc4ccc(C#N)cc4c32)CCO1", "note": "(stereo partly drawn) [Compound 34, 2-{1-[(1R)-1-cyclopropylethyl]-5-oxopyrrolidin-3-yl}-1-[(2R,4R)-2-methyloxan-4-yl]-1H-imidazo[4,5-c]quinoline-8-carbonitrile]", "values": [
      {"measurement": "IC50", "setting": "LRRK2 wild type enzyme", "value": 4.22, "unit": "nM"},
      {"measurement": "IC50", "setting": "[1]", "value": 273, "unit": "nM"}
    ]},
    {"compound": "C[C@@H]1C[C@H](n2c(CC(=O)N[C@H]3CCOC3)nc3cnc4ccc(Cl)cc4c32)CCO1", "note": "[Compound 147, 2-{8-chloro-1-[(2R,4R)-2-methyloxan-4-yl]-1H-imidazo[4,5-c]quinolin-2-yl}-N-[(3S)-oxolan-3-yl]acetamide]", "values": [
      {"measurement": "IC50", "setting": "LRRK2 wild type enzyme", "value": 0.386, "unit": "nM"},
      {"measurement": "IC50", "setting": "[1]", "value": 10, "unit": "nM"}
    ]},
    {"compound": "Cc1cc(NC(=O)Cc2nc3cnc4ccc(C#N)cc4c3n2[C@@H]2CCO[C@H](C)C2)c(=O)n(C)n1", "note": "[Compound 214, N-(2-methyl-6-methyl-3-oxo-2,3-dihydro-4-pyridazinyl){3-[(2R,4R)-2-methyltetrahydro-2H-pyran-4-yl]-12-cyano-3,5,8-triazatricyclo[7.4.0.0^2,6]trideca-1,4,6,8,10,12-hexaen-4-yl}acetamide]", "values": [
      {"measurement": "IC50", "setting": "LRRK2 wild type enzyme", "value": 0.294, "unit": "nM"},
      {"measurement": "IC50", "setting": "[1]", "value": 10.3, "unit": "nM"}
    ]},
    {"compound": "C[C@@H]1C[C@H](n2c([C@@H]3CC(=O)N(c4cnn(C)c4)C3)nc3cnc4ccc(C#N)cc4c32)CCO1", "note": "[Compound 48, 2-[(3R)-1-(1-methyl-1H-pyrazol-4-yl)-5-oxopyrrolidin-3-yl]-1-[(2R,4R)-2-methyloxan-4-yl]-1H-imidazo[4,5-c]quinoline-8-carbonitrile]", "values": [
      {"measurement": "IC50", "setting": "LRRK2 wild type enzyme", "value": 0.921, "unit": "nM"},
      {"measurement": "IC50", "setting": "[1]", "value": 110, "unit": "nM"}
    ]}
  ]
}
